Columns and labels:
CDK2/Cyclin A2 = CDK2/Cyclin A2 (Homo sapiens, UniProt P24941); format: protein-complex assay
Description: Inhibition of human full length CDK2/CyclinA2 by ADP-Glo kinase assay

HCT-116 = assay: Antiproliferative activity against human HCT-116 cells assessed as cell growth inhibition after 72 hrs by MTT assay; format: functional
SW480 = assay: Antiproliferative activity against human SW480 cells assessed as cell growth inhibition after 72 hrs by MTT assay; format: functional
A549 = assay: Antiproliferative activity against human A549 cells assessed as cell growth inhibition after 72 hrs by MTT assay; format: functional
MCF7 = assay: Antiproliferative activity against human MCF7 cells assessed as cell growth inhibition after 72 hrs by MTT assay; format: functional
Acetylcholinesterase = Acetylcholinesterase (Electrophorus electricus, UniProt O42275); assay: Inhibition of electric eel AChE using acetylthiocholine […] as substrate for 20 mins by Ellman's method
Sequence of Acetylcholinesterase (O42275 whole entry): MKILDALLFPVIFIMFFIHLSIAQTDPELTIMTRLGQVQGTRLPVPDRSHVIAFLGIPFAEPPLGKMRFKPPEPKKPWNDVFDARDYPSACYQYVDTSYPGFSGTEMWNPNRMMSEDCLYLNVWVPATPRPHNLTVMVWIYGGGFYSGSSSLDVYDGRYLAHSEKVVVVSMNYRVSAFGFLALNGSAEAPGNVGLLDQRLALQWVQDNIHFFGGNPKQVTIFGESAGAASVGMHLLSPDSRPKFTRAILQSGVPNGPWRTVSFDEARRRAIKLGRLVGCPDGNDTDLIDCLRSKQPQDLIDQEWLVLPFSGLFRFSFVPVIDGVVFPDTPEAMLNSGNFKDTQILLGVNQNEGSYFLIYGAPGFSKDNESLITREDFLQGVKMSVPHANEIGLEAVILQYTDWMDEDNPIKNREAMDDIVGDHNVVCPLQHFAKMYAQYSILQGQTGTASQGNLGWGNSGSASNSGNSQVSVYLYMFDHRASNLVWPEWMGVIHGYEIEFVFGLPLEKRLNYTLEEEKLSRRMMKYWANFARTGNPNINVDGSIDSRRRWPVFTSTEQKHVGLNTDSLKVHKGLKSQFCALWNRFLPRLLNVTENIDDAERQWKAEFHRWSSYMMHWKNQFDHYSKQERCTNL

Cholinesterase = Cholinesterase (Equus caballus, UniProt P81908); assay: Inhibition of equine serum BuChE using […] as substrate for 20 mins by Ellman's method
Sequence of Cholinesterase (P81908 whole entry): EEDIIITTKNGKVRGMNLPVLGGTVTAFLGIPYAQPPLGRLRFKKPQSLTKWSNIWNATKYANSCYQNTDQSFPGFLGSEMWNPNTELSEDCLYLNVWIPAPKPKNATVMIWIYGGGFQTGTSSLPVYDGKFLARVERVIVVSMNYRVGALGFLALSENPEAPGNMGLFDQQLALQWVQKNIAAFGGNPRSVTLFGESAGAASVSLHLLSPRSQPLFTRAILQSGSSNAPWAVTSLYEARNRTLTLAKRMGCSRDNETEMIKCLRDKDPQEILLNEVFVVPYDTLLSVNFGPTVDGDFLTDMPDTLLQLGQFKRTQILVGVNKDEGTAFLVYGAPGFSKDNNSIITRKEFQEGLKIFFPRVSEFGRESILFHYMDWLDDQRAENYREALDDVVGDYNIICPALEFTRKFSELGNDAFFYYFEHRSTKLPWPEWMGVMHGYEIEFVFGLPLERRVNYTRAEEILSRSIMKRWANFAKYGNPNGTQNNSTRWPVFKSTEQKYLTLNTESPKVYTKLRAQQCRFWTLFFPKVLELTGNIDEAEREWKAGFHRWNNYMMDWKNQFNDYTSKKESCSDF

[1] = Selectivity index, ratio of IC50 for electric eel AChE to IC50 for CDK9/CyclinT1 (unknown origin)
[2] = Selectivity index, ratio of IC50 for equine serum BuChE to IC50 for CDK9/CyclinT1 (unknown origin)
[3] = Selectivity index, ratio of IC50 for human full length CDK2/CyclinA to IC50 for CDK9/CyclinT1 (unknown origin)
CDK9/cyclin T1 = CDK9/cyclin T1 (Homo sapiens, UniProt P50750)
Sequence of CDK9/cyclin T1 (O60563 whole entry): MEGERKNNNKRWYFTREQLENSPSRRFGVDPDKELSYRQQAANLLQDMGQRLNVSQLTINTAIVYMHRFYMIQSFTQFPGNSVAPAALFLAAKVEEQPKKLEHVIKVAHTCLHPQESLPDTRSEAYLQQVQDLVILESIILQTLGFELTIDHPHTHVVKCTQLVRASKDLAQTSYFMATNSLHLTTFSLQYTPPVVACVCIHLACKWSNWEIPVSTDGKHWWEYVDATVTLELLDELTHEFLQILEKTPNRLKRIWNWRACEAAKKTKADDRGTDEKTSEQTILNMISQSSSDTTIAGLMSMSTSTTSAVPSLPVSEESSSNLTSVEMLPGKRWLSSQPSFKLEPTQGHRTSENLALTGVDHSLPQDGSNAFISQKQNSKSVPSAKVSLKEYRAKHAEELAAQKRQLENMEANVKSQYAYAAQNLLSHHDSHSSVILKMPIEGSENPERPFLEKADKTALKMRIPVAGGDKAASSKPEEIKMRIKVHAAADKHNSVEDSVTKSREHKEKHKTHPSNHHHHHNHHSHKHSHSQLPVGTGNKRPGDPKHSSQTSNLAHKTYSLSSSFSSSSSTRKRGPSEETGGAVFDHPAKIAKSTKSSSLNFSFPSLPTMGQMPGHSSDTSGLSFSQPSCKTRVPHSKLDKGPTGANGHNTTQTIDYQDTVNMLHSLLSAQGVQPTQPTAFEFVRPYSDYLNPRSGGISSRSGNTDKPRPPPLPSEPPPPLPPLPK
Sequence of CDK9/cyclin T1 (P50750 whole entry): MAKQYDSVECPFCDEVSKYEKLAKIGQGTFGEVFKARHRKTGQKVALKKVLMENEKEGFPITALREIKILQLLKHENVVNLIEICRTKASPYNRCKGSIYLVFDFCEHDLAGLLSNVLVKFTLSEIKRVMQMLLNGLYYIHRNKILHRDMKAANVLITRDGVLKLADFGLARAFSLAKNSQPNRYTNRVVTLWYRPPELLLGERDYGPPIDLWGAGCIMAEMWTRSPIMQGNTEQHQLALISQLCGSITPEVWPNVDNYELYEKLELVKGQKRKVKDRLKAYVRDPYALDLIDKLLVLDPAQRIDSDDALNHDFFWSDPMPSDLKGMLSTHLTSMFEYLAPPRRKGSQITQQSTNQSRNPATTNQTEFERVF
Description: Inhibition of CDK9/CyclinT1 (unknown origin) by ADP-Glo kinase assay

| Structure (SMILES) | IC50 (CDK2/Cyclin A2) [nM] | GI50 (HCT-116) [nM] | GI50 (SW480) [nM] | GI50 (A549) [nM] | GI50 (MCF7) [nM] | IC50 (Acetylcholinesterase) [nM] | IC50 (Cholinesterase) [nM] | Selectivity Index [1] | Selectivity Index [2] | Selectivity Index [3] | IC50 (CDK9/cyclin T1) [nM] |
| --- | --- | --- | --- | --- | --- | --- | --- | --- | --- | --- | --- |
| N[C@H]1CCN(c2c3c(nc4ccc(-c5ccnc(NC(=O)C6CCC6)c5)cc24)CCC3)C1 | 86 | 138 | 456 | 195 | 333 | 1760 | 3180 | 275 | 497 | 13 | 6.39 |
| N[C@H]1CCN(c2c3c(nc4ccc(-c5ccnc(NC(=O)C6CC6)c5)cc24)CCCCCC3)C1 | 2.92 | 14 | 34 | 52 | 65 | 17200 |  | 9210 |  | 2 |  |
| N[C@H]1CCN(c2c3c(nc4ccc(-c5ccnc(NC(=O)C6CC6)c5)cc24)CCC3)C1 | 252 | 73 | 251 | 191 | 203 | 2250 | 6010 | 671 | 1790 | 75 | 3.36 |
| N[C@H]1CCN(c2c3c(nc4ccc(-c5ccnc(NC(=O)C6CCCC6)c5)cc24)CCCCC3)C1 | 17.6 | 134 | 65 | 83 | 210 | 17100 | 1180 | 6180 | 425 | 6 | 2.77 |
| N[C@H]1CCN(c2c3c(nc4ccc(-c5ccnc(NC(=O)C6CCC6)c5)cc24)CCCCC3)C1 | 10.7 | 86 | 80 | 77 | 168 | 17600 | 1180 | 4290 | 288 | 3 | 4.11 |
| N[C@H]1CCN(c2c3c(nc4ccc(-c5cccnc5)cc24)CCCCC3)C1 | > 500 | > 10000 | > 3000 | > 10000 | > 10000 | 13700 | 722 |  |  |  | > 500 |
| N[C@H]1CCN(c2c3c(nc4ccc(-c5ccccc5)cc24)CCCCC3)C1 | > 500 | 5880 | 2930 | 9530 | 4060 | 19100 | 133 |  |  |  | > 500 |
| N[C@H]1CCN(c2c3c(nc4ccc(-c5nccc(NC(=O)C6CC6)n5)cc24)CCCCC3)C1 | > 500 | > 3000 | > 3000 | > 10000 | 8390 | 17600 | 2510 |  |  |  | > 500 |
| N[C@H]1CCN(c2c3c(nc4ccc(-c5ccnc(NC(=O)C6CC6)c5)cc24)-c2ccccc2CCC3)C1 | > 500 | 2670 | 3050 | 1900 | 2220 | > 50000 | 3340 |  | 28 |  | 111 |
| N[C@H]1CCN(c2c3c(nc4ccc(-c5ccnc(NC(=O)C6CC6)c5)cc24)CCCC3)C1 |  | 29 | 328 |  | 109 |  |  |  |  |  | 2.23 |
| N[C@H]1CCN(c2c3c(nc4ccc(-c5ccncc5)cc24)CCCCC3)C1 | > 500 | 272 | 458 | 393 | 424 | 24800 | 422 | 2970 | 51 |  | 8.35 |
| N[C@@H]1CCN(c2c3c(nc4ccc(-c5ccnc(NC(=O)C6CC6)c5)cc24)CCCCC3)C1 | 6.46 | 39 | 49 | 41 | 80 |  | 4780 |  | 2560 | 3 |  |
| N[C@H]1CCN(c2c3c(nc4ccc(-c5ccnc(C(=O)NC6CC6)c5)cc24)CCCCC3)C1 | > 500 | 4740 | 9120 | > 10000 | 10400 | 5570 | 4990 |  |  |  | > 500 |
